Measurements reported in PubChem BioAssay AID1259408 (Genetic Toxicology Data Bank (GENE-TOX), 2018).
Activity calls are given as the source filed them. No rule for the calls is given here.

Test system: GENE-TOX genotoxicity assays, various organisms and cells
Experiment: GENE-TOX mutagenicity studies
Details: for call: Assay Type: In vivo carcinogenicity studies
Description: GENE-TOX provides genetic toxicology (mutagenicity) test data from expert peer review of open scientific literature for more than 3,000 chemicals from the United States Environmental Protection Agency (EPA). GENE-TOX was established to select assay systems for evaluation, review data in the scientific literature, and recommend proper testing protocols and evaluation procedures for these systems.
GENE-TOX covers the years 1991 - 1998. It is no longer updated.
This is an archive assay for GENE-TOX mutagenicity studies.

[1] = Species/Cell Type: Nonhuman, Assay Code: CCG+, Evaluation Type: Evaluation A (Pre-1980)
[2] = Species/Cell Type: Rodents, Sex: Male, Assay Type: Dominant lethal test, Assay Code: DLT+, Evaluation Type: Evaluation A (Pre-1980)
[3] = Species/Cell Type: Salmonella typhimurium (one or more of the five standard strains: TA98, TA100, TA1535, TA1537, and TA1538), Assay Type: Histidine reverse gene mutation, Ames assay, Assay Code: SAL-, Evaluation Type: Evaluation A (Pre-1980)
[4] = Species/Cell Type: Escherichia coli polA (W3119 vs P3478), Assay Type: Rec-assay, DNA effects (bacterial DNA repair), Assay Code: RE1T, Evaluation Type: Evaluation A (Pre-1980)
[5] = Species/Cell Type: Human diploid fibroblasts, Assay Type: Unscheduled DNA synthesis (UDS) in vitro, DNA effects, Assay Code: UDH-, Evaluation Type: Evaluation A (Pre-1980)
[6] = Species/Cell Type: Saccharomyces cerevisiae, Assay Type: Mitotic recombination or gene conversion, Assay Code: YEH-, Evaluation Type: Evaluation A (Pre-1980)
[7] = Species/Cell Type: Salmonella typhimurium (one or more of the five standard strains: TA98, TA100, TA1535, TA1537, and TA1538), Assay Type: Histidine reverse gene mutation, Ames assay, Assay Code: SAL+*, Activation: With metabolic activation, Evaluation Type: Evaluation A (Pre-1980)
[8] = Species/Cell Type: Human lymphocytes, Assay Type: Sister-chromatid exchange (SCE) in vitro, Assay Code: SCLT, Evaluation Type: Evaluation B (Post-1980)
[9] = Species/Cell Type: Human, Assay Type: Sister-chromatid exchange (SCE) in vitro, Assay Code: SC1T, Evaluation Type: Evaluation B (Post-1980)

`CNNCc1ccc(C(=O)NC(C)C)cc1` was tested, and the mutagenic call (Species/Cell Type: Drosophila melanogaster, Assay Type: Aneuploidy, partial sex chromosome loss, chromosome aberrations, Assay Code: DAP-M, Evaluation Type: Evaluation A (Pre-1980)) was “inactive; negative”, the mutagenic call (Species/Cell Type: Drosophila melanogaster, Assay Type: Aneuploidy, whole sex chromosome loss, chromosome aberrations, Assay Code: DAC+M, Evaluation Type: Evaluation A (Pre-1980)) was “active; positive” and the mutagenic call (Species/Cell Type: Drosophila melanogaster, Assay Type: Sex-linked recessive lethal gene mutation, Assay Code: SRL+, Evaluation Type: Evaluation A (Pre-1980)) was “active; positive”. For the same compound, the mutagenic call (Species/Cell Type: Drosophila melanogaster, Sex: Male, Assay Type: Heritable translocation test, chromosome aberrations, Assay Code: DHT-, Evaluation Type: Evaluation A (Pre-1980)) was “inactive; negative”, the mutagenic call (Species/Cell Type: Escherichia coli polA (W3119 vs P3478), Assay Type: Rec-assay, DNA effects (bacterial DNA repair), Assay Code: RE1+, Evaluation Type: Evaluation A (Pre-1980)) was “active; positive” and the mutagenic call (Species/Cell Type: Fischer rat embryo (RLV/1706) cells, Assay Type: Cell transformation, viral enhanced, Assay Code: CTR+, Evaluation Type: Evaluation A (Pre-1980)) was “active; positive”. The mutagenic call (Species/Cell Type: Human lymphocytes, Assay Type: Sister-chromatid exchange (SCE) in vitro, Assay Code: SCL+, Evaluation Type: Evaluation B (Post-1980)) was “active; positive”, the mutagenic call (Species/Cell Type: Human, Assay Type: Sister-chromatid exchange (SCE) in vitro, Assay Code: SC1+, Evaluation Type: Evaluation B (Post-1980)) was “active; positive” and the mutagenic call (Species/Cell Type: Mammalian polychromatic erythrocytes, Assay Type: Micronucleus test, chromosome aberrations, Assay Code: MNT+, Evaluation Type: Evaluation A (Pre-1980)) was “active; positive”. The mutagenic call (Species/Cell Type: Mouse (BALB/c-3T3) cells, Assay Type: Cell transformation, Assay Code: CTB-, Evaluation Type: Evaluation A (Pre-1980)) was “inactive; negative”, the mutagenic call (Species/Cell Type: Mouse lymphoma (L5178Y) cells, Assay Type: Forward gene mutation at the thymidine kinase (TK) locus, chromosome aberrations, Assay Code: L51+, Evaluation Type: Evaluation A (Pre-1980)) was “active; positive” and the mutagenic call (Species/Cell Type: Mouse, Sex: Female, Assay Type: Spot test, gene mutation, Assay Code: MST+, Evaluation Type: Evaluation A (Pre-1980)) was “active; positive”. The mutagenic call (Species/Cell Type: Mouse, Sex: Male, Assay Type: Heritable translocation test, chromosome aberrations, Assay Code: HTT+, Evaluation Type: Evaluation A (Pre-1980)) was “active; positive”, the mutagenic call (Species/Cell Type: Mouse, Sex: Male, Assay Type: Specific locus test, gene mutation, Assay Code: SLT+, Evaluation Type: Evaluation A (Pre-1980)) was “active; positive” and the mutagenic call (Species/Cell Type: Mouse, Sex: Male, Assay Type: Sperm morphology, Assay Code: SPI+, Evaluation Type: Evaluation A (Pre-1980)) was “active; positive”. The mutagenic call (Species/Cell Type: Neurospora crassa, Assay Type: Forward gene mutation, Assay Code: NEF+, Evaluation Type: Evaluation A (Pre-1980)) was “active; positive”, the call [1] was “active; positive” and the mutagenic call (Species/Cell Type: Nonhuman, Assay Type: Sister-chromatid exchange (SCE) in vivo, Assay Code: SC3+D, Dose Response: With dose response, Evaluation Type: Evaluation A (Pre-1980)) was “active; positive”. The mutagenic call (Species/Cell Type: Rabbit, Sex: Male, Assay Type: Sperm morphology, Assay Code: SPR+, Evaluation Type: Evaluation A (Pre-1980)) was “active; positive”, the mutagenic call [2] was “active; positive” and the mutagenic call (Species/Cell Type: Saccharomyces cerevisiae, Assay Type: Mitotic recombination or gene conversion, Assay Code: YEC+/-*, Activation: With metabolic activation, Evaluation Type: Evaluation A (Pre-1980)) was “inactive; positive without activation, negative with activation”. For the same compound, the mutagenic call (Species/Cell Type: Saccharomyces cerevisiae, Assay Type: Mitotic recombination or gene conversion, Assay Code: YEH+/-*, Activation: With metabolic activation, Evaluation Type: Evaluation A (Pre-1980)) was “inactive; positive without activation, negative with activation”, the mutagenic call (Species/Cell Type: Saccharomyces cerevisiae, Assay Type: Reverse gene mutation, Assay Code: YER+/-*, Activation: With metabolic activation, Evaluation Type: Evaluation A (Pre-1980)) was “inactive; positive without activation, negative with activation” and the mutagenic call [3] was “inactive; negative”. The mutagenic call (Species/Cell Type: Salmonella typhimurium, Assay Type: Forward and reverse gene mutation, host-mediated assay, Assay Code: HMA+, Evaluation Type: Evaluation A (Pre-1980)) was “active; positive” and the mutagenic call (Species/Cell Type: Syrian hamster embryo (SHE) cells, Assay Type: Cell transformation, clonal assay, Assay Code: CTC+, Evaluation Type: Evaluation A (Pre-1980)) was “active; positive”.

In the case of `CC(=O)Nc1ccc2c(c1)Cc1cccc(O)c1-2`, the mutagenic call (Species/Cell Type: Escherichia coli polA (W3110 vs P3478), Assay Type: Rec-assay, DNA effects (bacterial DNA repair), Assay Code: RE2+, Evaluation Type: Evaluation A (Pre-1980)) is reported as “active; positive”, the mutagenic call [4] is reported as “no conclusion” and the mutagenic call [5] is reported as “inactive; negative”. For the same compound, the mutagenic call [6] was “inactive; negative” and the mutagenic call [7] was “active; positive”.

For `Nc1ccc2c(c1)C(=O)c1ccccc1C2=O`, the call [1] was “active; positive”.

With `OCCO` the mutagenic call (Species/Cell Type: Drosophila melanogaster, Assay Type: Aneuploidy, sex chromosome gain, chromosome aberrations, Assay Code: DAGT, Evaluation Type: Evaluation A (Pre-1980)) was “no conclusion”, the mutagenic call (Species/Cell Type: Drosophila melanogaster, Assay Type: Aneuploidy, whole sex chromosome loss, chromosome aberrations, Assay Code: DACT, Evaluation Type: Evaluation A (Pre-1980)) was “no conclusion” and the mutagenic call (Species/Cell Type: Neurospora crassa, Assay Type: Aneuploidy, chromosome aberrations, Assay Code: NEN-, Evaluation Type: Evaluation A (Pre-1980)) was “inactive; negative”. The mutagenic call [3] was “inactive; negative” and the mutagenic call (Species/Cell Type: Syrian hamster embryo (SA7/SHE) cells, Assay Type: Cell transformation, viral enhanced, Assay Code: CT7-, Evaluation Type: Evaluation A (Pre-1980)) was “inactive; negative”.

With `CCOC(=O)CCCCC(=O)OCC` the mutagenic call [2] was “active; positive”.

In the case of `Nc1ccc(Sc2ccc(N)cc2)cc1`, the call [1] is reported as “active; positive”.

For `CCN(N=O)C(C)(C)C`, the mutagenic call (Species/Cell Type: Drosophila melanogaster, Assay Type: Sex-linked recessive lethal gene mutation, Assay Code: SRLT, Evaluation Type: Evaluation A (Pre-1980)) was “no conclusion”.

With `CCOP(=S)(OCC)Oc1ccc(S(C)=O)cc1` (stereo unspecified) the mutagenic call (Species/Cell Type: Bacillus subtilis (H17 vs M45), Assay Type: Rec-assay, spot test, DNA effects (bacterial DNA repair), Assay Code: REWT, Evaluation Type: Evaluation A (Pre-1980)) was “no conclusion”, the mutagenic call (Species/Cell Type: Drosophila melanogaster, Assay Type: Sex-linked recessive lethal gene mutation, Assay Code: SRL-, Evaluation Type: Evaluation A (Pre-1980)) was “inactive; negative” and the mutagenic call (Species/Cell Type: Escherichia coli WP2 UVRA, Assay Type: Tryptophan reverse gene mutation, Assay Code: WPU-*, Activation: With metabolic activation, Evaluation Type: Evaluation A (Pre-1980)) was “inactive; negative”. The mutagenic call [4] was “no conclusion”, the mutagenic call [5] was “inactive; negative” and the mutagenic call (Species/Cell Type: Nonhuman, Assay Type: Sister-chromatid exchange (SCE) in vitro, Assay Code: SC2T, Evaluation Type: Evaluation B (Post-1980)) was “no conclusion”. The mutagenic call [6] was “inactive; negative” and the mutagenic call [3] was “inactive; negative”.

With `OCCc1ccccc1` the mutagenic call [8] was “no conclusion” and the mutagenic call [9] was “no conclusion”.

In the case of `NC(=S)Nc1ccccc1`, the call (Species/Cell Type: Nonhuman, Assay Code: CCG-L, Evaluation Type: Evaluation A (Pre-1980)) is reported as “inactive; negative”.

For `O=P1(N(CCCl)CCCl)NC(OO)CCO1` (stereo unspecified), the mutagenic call (Species/Cell Type: Human lymphocytes, Assay Type: Sister-chromatid exchange (SCE) in vitro, Assay Code: SCL+D, Dose Response: With dose response, Evaluation Type: Evaluation B (Post-1980)) was “active; positive” and the mutagenic call (Species/Cell Type: Human, Assay Type: Sister-chromatid exchange (SCE) in vitro, Assay Code: SC1+D, Dose Response: With dose response, Evaluation Type: Evaluation B (Post-1980)) was “active; positive”.

For `O=c1[nH]c2c(c(=O)n1C1CCCCC1)CCC2` (tested in a mixture with another compound), the mutagenic call (Species/Cell Type: Saccharomyces cerevisiae, Assay Type: Mitotic recombination or gene conversion, Assay Code: YEC-, Evaluation Type: Evaluation A (Pre-1980)) was “inactive; negative”.

With `O=C(Cn1ccnc1[N+](=O)[O-])NCc1ccccc1` the mutagenic call (Species/Cell Type: Mammalian polychromatic erythrocytes, Assay Type: Micronucleus test, chromosome aberrations, Assay Code: MNT+, Evaluation Type: Evaluation B (Post-1980)) was “active; positive”.

For `Cc1ccc2ccccc2n1`, the mutagenic call [7] was “active; positive”.

In the case of `Cc1ncc([N+](=O)[O-])n1CC(=O)O`, the mutagenic call [8] is reported as “no conclusion” and the mutagenic call [9] is reported as “no conclusion”.

For `C[C@]1(O)CC[C@H]2[C@@H]3CCC4=CC(=O)CC[C@]4(C)[C@@]3(F)[C@@H](O)C[C@@]21C`, the mutagenic call (Species/Cell Type: Human, Sex: Male, Assay Type: Sperm morphology, Assay Code: SPHT, Evaluation Type: Evaluation A (Pre-1980)) was “no conclusion”.

For `Cc1cc2c(c3ccc4ccccc4c13)CCCC2=O`, the mutagenic call [7] was “active; positive”.

With `O=[N+]([O-])c1ccc2[nH]ncc2c1` the mutagenic call (Species/Cell Type: Salmonella typhimurium (one or more of the five standard strains: TA98, TA100, TA1535, TA1537, and TA1538), Assay Type: Histidine reverse gene mutation, Ames assay, Assay Code: SAL+, Evaluation Type: Evaluation A (Pre-1980)) was “active; positive”.
